The source made the active and inactive calls. The rule behind the calls is not given here.

The test system of data set [1] is SW480. Put plainly: Antiproliferative activity against human SW480 cells after 48 hrs by MTT assay. The data set is classed as functional, cell-based. To be noted: SW480, 48 h. A general note: Formazan colour is commonly taken as a measure of viable cells.
The nature of data set [2]: Antiproliferative activity against human DLD1 cells after 72 hrs by MTT assay. Type of data set: functional, cell-based. To be noted: DLD-1, 72 h.
In data set [3] the test system is SW480. The data set is described as follows: Cell cycle arrest in human SW480 cells assessed as accumulation at G2/M phase at 10 uM after 48 hrs by propidium iodide staining-based flow cytometric analysis (reference value: 8.57%). The data set is classed as functional. In general terms: In flow cytometry, cells or beads pass a laser one at a time.
The subject of data set [4] is SW480. The data set is described as follows: Cell cycle arrest in human SW480 cells assessed as accumulation at G2/M phase at 20 uM after 48 hrs by propidium iodide staining-based flow cytometric analysis (reference value: 8.57%). Type of data set: functional.
A short description of data set [5]: Antioxidant activity assessed as ABTS radical scavenging activity after 6 mins by photometric analysis. The data set is classed as physicochemical.
Data set [6] is described as follows: Antioxidant activity assessed as DPPH radical scavenging activity after 30 mins by ELISA reader analysis. The data set is classed as physicochemical. For orientation: DPPH is a stable violet radical that fades when it is reduced.
Data set [7] relates to SW480. Put plainly: Induction of apoptosis in human SW480 cells assessed as DNA fragmentation at 20 uM after 48 hrs by Hoechst 33258 staining-based fluorescence microscopic analysis. The data set is classed as functional, cell-based.
Data set [8] relates to SW480. The data set is described as follows: Induction of apoptosis in human SW480 cells assessed as early apoptotic cells at 10 uM after 48 hrs by annexin V-FITC/propidium iodide staining-based flow cytometric analysis. The data set is classed as functional, cell-based.
In data set [9] the test system is SW480. Put plainly: Induction of ROS generation in human SW480 cells assessed as superoxide anion level at 20 uM after 48 hrs by DHE staining-based fluorescence assay (reference value: 101.21 No_Unit). The data set is classed as functional.
The test system of data set [10] is SW480. The data set is described as follows: Cell cycle arrest in human SW480 cells assessed as accumulation at S phase at 5 uM after 48 hrs by propidium iodide staining-based flow cytometric analysis (reference value: 26.19%). Type of data set: functional.
Data set [11] has as its system SW480. Put plainly: Induction of ROS generation in human SW480 cells after 48 hrs by DHE staining-based fluorescence assay. Type of data set: functional, cell-based.
Data set [12] deals with SW480. The data set is described as follows: Cell cycle arrest in human SW480 cells assessed as accumulation at G1 phase at 5 uM after 48 hrs by propidium iodide staining-based flow cytometric analysis (reference value: 65.24%). The data set is classed as functional.
Data set [13] deals with SW480. The data set is described as follows: Cell cycle arrest in human SW480 cells assessed as accumulation at G2/M phase at 5 uM after 48 hrs by propidium iodide staining-based flow cytometric analysis (reference value: 8.57%). The data set is classed as functional.
For data set [14], the system named is SW480. The data set is described as follows: Cell cycle arrest in human SW480 cells assessed as accumulation at G1 phase at 10 uM after 48 hrs by propidium iodide staining-based flow cytometric analysis (reference value: 65.24%). Type of data set: functional.
In data set [15] the test system is SW480. Put plainly: Induction of apoptosis in human SW480 cells assessed as late apoptotic cells at 10 uM after 48 hrs by annexin V-FITC/propidium iodide staining-based flow cytometric analysis. Type of data set: functional, cell-based.
Data set [16] relates to SW480. The data set is described as follows: Induction of ROS generation in human SW480 cells assessed as superoxide anion level at 5 uM after 48 hrs by DHE staining-based fluorescence assay (reference value: 101.21). The data set is classed as functional.
Data set [17] has as its system SW480. The data set is described as follows: Antiproliferative activity against human SW480 cells after 72 hrs by MTT assay. Type of data set: functional, cell-based. The conditions noted are these: SW480, 72 h.
The subject of data set [18] is HT-29. The data set is described as follows: Antiproliferative activity against human HT-29 cells after 72 hrs by MTT assay. Type of data set: functional, cell-based. To be noted: HT-29, 72 h.
Data set [19] is described as follows: Antiproliferative activity against human DLD1 cells after 24 hrs by MTT assay. The data set is classed as functional, cell-based. The conditions noted are these: DLD-1, 24 h.
The subject of data set [20] is SW480. Put plainly: Induction of apoptosis in human SW480 cells assessed as chromatin condensation at 20 uM after 48 hrs by Hoechst 33258 staining-based fluorescence microscopic analysis. Type of data set: functional, cell-based.
The test system of data set [21] is SW480. Put plainly: Antiproliferative activity against human SW480 cells after 24 hrs by MTT assay. The data set is classed as functional, cell-based. To be noted: SW480, 24 h.
The test system of data set [22] is HT-29. Put plainly: cells. The conditions noted are these: Homo sapiens, HT-29, 48 h.
Description: Antiproliferative activity against human HT-29 cells after 48 hrs by MTT assay
Data set [23] concerns SW480. Put plainly: Induction of ROS generation in human SW480 cells assessed as superoxide anion level at 10 uM after 48 hrs by DHE staining-based fluorescence assay (reference value: 101.21 No_Unit). Type of data set: functional.
For data set [24], the system named is SW480. Put plainly: Cell cycle arrest in human SW480 cells assessed as accumulation at S phase at 10 uM after 48 hrs by propidium iodide staining-based flow cytometric analysis (reference value: 26.19%). The data set is classed as functional.
Data set [25] has as its system SW480. Put plainly: Cell cycle arrest in human SW480 cells assessed as accumulation at G1 phase at 20 uM after 48 hrs by propidium iodide staining-based flow cytometric analysis (reference value: 65.24%). Type of data set: functional.
Data set [26] concerns HepG2. The data set is described as follows: cells. The conditions noted are these: Homo sapiens, HepG2, 48 h.
The test system of data set [27] is SW480. The data set is described as follows: Cell cycle arrest in human SW480 cells assessed as accumulation at S phase at 20 uM after 48 hrs by propidium iodide staining-based flow cytometric analysis (reference value: 26.19%). The data set is classed as functional.
The nature of data set [28]: Antiproliferative activity against human DLD1 cells after 48 hrs by MTT assay. The conditions noted are these: DLD-1, 48 h. Type of data set: functional, cell-based.
A short description of data set [29]: Cytotoxicity against mouse BNL-CL2 cells assessed as induction of cell death at 20 uM after 48 hrs by MTT assay. The data set is classed as cell-based. To be noted: bnl-cl2, 48 h.
The subject of data set [30] is SW480. The data set is described as follows: Induction of apoptosis in human SW480 cells assessed as nuclear shrinkage at 20 uM after 48 hrs by Hoechst 33258 staining-based fluorescence microscopic analysis. The data set is classed as functional, cell-based.
Data set [31] deals with HT-29. The data set is described as follows: Antiproliferative activity against human HT-29 cells after 24 hrs by MTT assay. Type of data set: functional, cell-based. To be noted: HT-29, 24 h.
Data set [32] can be described thus: Cytotoxicity against mouse BNL-CL2 cells after 48 hrs by MTT assay. The data set is classed as cell-based. The conditions noted are these: BNL CL.2, 48 h.
Data set [33] has as its system SW480. The data set is described as follows: Induction of apoptosis in human SW480 cells assessed as early apoptotic cells after 48 hrs by annexin V-FITC/propidium iodide staining-based flow cytometric analysis. Type of data set: functional, cell-based.

As to `COc1cccc2c1C(=O)c1c(O)c3c(c(O)c1C2=O)C[C@@](O)(C(=O)CO)C[C@@H]3O[C@H]1C[C@H](N)[C@H](O)[C@H](C)O1` [DOXORUBICIN], half-maximal inhibition in data set [1] (IC50) was put at 0.53 µM.
On to `CC(C)=CCC/C(C)=C/CC/C(C)=C/COc1cc2oc(-c3ccccc3)cc(=O)c2c(O)c1O`, for which the IC50 amounted to 6.86 µM in data set [2]; 24 µM in [5]; 24.6 µM in data set [6]; 1.15 µM in data set [1]; 1.26 µM in [17]; 15.4 µM in data set [18]. For the same molecule, the IC50 in data set [19] is 16.1 µM; in data set [21] it was > 20 µM; in [22], 14.9 µM; in data set [26] it was > 20 µM; in [28], 4.88 µM; in [31] it was > 20 µM. Also, the concentration for half-maximal inhibition (IC50) in [32] was > 20 µM. The Activity was 9.41% in data set [3]; 6.64% in data set [4]; 23.88% in data set [10]; “Dose-dependent effect” in data set [11]; 68.64% in [12]; 7.47% in data set [13]. The Activity in [14] was 57.2%; in data set [24], 33.33%; in [25], 43.3%; in [27], 50%; in data set [29] it was < 20%; in data set [33], “Dose-dependent effect”. Besides, the outcome in [7], in data set [8], in [15], in data set [20] and in [30] was Active. Besides, the Flu intensity in [9] was 192.86; in data set [16], 102.13; in data set [23] it was 169.24.
In the case of `COc1cc(O)c2c(=O)cc(-c3ccccc3)oc2c1` [TECHTOCHRYSIN], the IC50 in data set [1], in data set [22], in data set [26], in [28] and in data set [32] was > 20 µM throughout.
Take `COc1cc2oc(-c3ccccc3)cc(=O)c2c(O)c1O`: the IC50 in data set [5] was 20.2 µM; in data set [6], 28.4 µM; in [1] it was 29.4 µM; in data set [22], > 40 µM; in [26], > 40 µM; in [28] it was 30.9 µM. The IC50 in [32] was > 40 µM.
Take `CCCCOc1cc2oc(-c3ccccc3)cc(=O)c2c(O)c1O`: the IC50 in data set [5] is 14 µM; in data set [6], 12.9 µM; in data set [1], > 20 µM; in data set [22], 19.5 µM; in data set [26] it was > 20 µM; in [28], > 20 µM. In addition, the IC50 in data set [32] is > 20 µM.
As to `CC(C)=CCC/C(C)=C/COc1cc(O)c2c(=O)cc(-c3ccccc3)oc2c1`, the concentration for half-maximal inhibition (IC50) in data set [1], in [22], in data set [26], in data set [28] and in data set [32] was > 20 µM each time.
As to `O=c1[nH]cc(F)c(=O)[nH]1` [FLUOROURACIL], the concentration for half-maximal inhibition (IC50) in [1] was 32.7 µM; in [22], > 100 µM; in data set [26], 40.2 µM.
Consider `O=c1cc(-c2ccccc2)oc2cc(O)cc(O)c12` [CHRYSIN], for which the concentration for half-maximal inhibition (IC50) in [1] is 31.1 µM; in data set [22], 19.5 µM; in [26], 16.5 µM; in data set [28] it was 18.6 µM; in [32], > 40 µM.

For orientation: IC50 means the concentration needed to halve the response being measured.

The values above are taken from ChEMBL document CHEMBL3751778, “Synthesis and biological evaluation of novel 7-O-lipophilic substituted baicalein derivatives as potential anticancer agents” (Medchemcomm, 2015).
